Read-outs that look alike come from different tables or passages of the source. Blank lines part the entries; values can stand above or below the compound they belong to.
Legend:
[1] = system: WT SV40 MEF (wild-type immortalized mouse embryonic fibroblast); experiment: Cytotoxic activity in wild-type fibroblasts; assay type: cell-based; conditions: WT SV40 MEF cell line
Excerpt: (§1) MCF7 (human breast carcinoma), HCT116 (human colon carcinoma), HepG2 (human hepatocellular carcinoma), SCC-9 (human oral squamous cell carcinoma), HSC-3 (human oral squamous cell carcinoma), HL-60 (human promyelocytic leukemia), K-562 (human chronic myelogenous leukemia), B16-F10 (murine melanoma), MRC-5 (human lung fibroblast), WT SV40 MEF (wild-type immortalized mouse embryonic fibroblast), and BAD KO SV40 MEF (BAD gene knockout immortalized mouse embryonic fibroblast) cell lines were obtained from the American Type Culture Collection (ATCC, Manassas, VA, USA). Cells were cultured in complete medium with appropriate supplements as recommended by ATCC. All cell lines were tested for mycoplasma using the Mycoplasma Stain Kit (Sigma-Aldrich) to validate the use of cells free from contamination. Primary cell culture of peripheral blood mononuclear cells (PBMC) was obtained by standard Ficoll density protocol. The Research Ethics Committee of the Oswaldo Cruz Foundation (Salvador, BA, Brazil) approved the experimental protocol (number 031019/2013). Cell viability was examined using trypan blue exclusion assay for all experiments.
(§2) Cell viability was quantified using the alamarBlue assay according to Ahmed et al.. Cells were inserted in 96-well plates for all experiments (7 × 10^4 cells/mL for adherent cells or 3 × 10^5 cells/mL for suspended cells in 100 μL of medium). After 24 h, xylopine was dissolved in dimethyl sulfoxide (DMSO) and added to each well and incubated for 72 h. […] Four (for cell lines) or 24 h (for PBMCs) before the end of incubation, 20 μL of a stock solution (0.312 mg/mL) of the alamarBlue (resazurin, Sigma-Aldrich Co., Saint Louis, MO, USA) was added to each well. Absorbance at 570 nm and 600 nm was measured using the SpectraMax 190 Microplate Reader (Molecular Devices, Sunnyvale, CA, USA), and the drug effect was quantified as the percentage of control absorbance.

[2] = system: BAD KO SV40 MEF (BAD gene knockout immortalized mouse embryonic fibroblast); experiment: Cytotoxic activity in BAD gene knockout fibroblasts; assay type: cell-based; conditions: BAD KO SV40 MEF cell line
Excerpt: as §1, §2

[3] = system: cancer multicellular spheroids formed from HCT116 cells; experiment: 3D multicellular spheroids culture, alamarBlue assay, 72 h; assay type: cell-based, human; conditions: 3D spheroids of HCT116, alamarBlue, 72 h
Method: HCT116 cells were cultivated in three-dimensional (3D) multicellular spheroids. Briefly, 100 μL of a solution of cells (0.5 × 10^6 cells/mL) was inserted in 96-well plates with a cell-repellent surface (Greiner Bio-One, Kremsmünster, Austria) and cultured in complete medium plus 3% Matrigel (BD Biosciences, San Jose, CA, USA). Spheroids with stable structures had formed after three days. Then, the spheroids were exposed to a range of drug concentrations for 72 h, after which the cell viability was quantified by alamarBlue assay as described above.

HCT116 cells [4] = experiment: Cell viability by trypan blue exclusion assay; assay type: cell-based, human; conditions: HCT116, trypan blue, DOX 1 μM, OXA 2.5 μM, 24 and 48 h
Excerpt: as §1

HCT116 cells [5] = experiment: Morphological analysis (May-Grünwald-Giemsa); assay type: cell-based, human; conditions: 24 and 48 h, DOX 1 μM, OXA 2.5 μM
Method: To evaluate alterations in morphology, cells were cultured under coverslip and stained with May-Grünwald-Giemsa. Morphological changes were examined by light microscopy using Image-Pro software.

[6] = system: PBMC (human peripheral blood mononuclear cells); experiment: Cytotoxic activity, alamarBlue assay, 72 h (noncancer cells); assay type: cell-based
Excerpt: as §1, §2

[7] = system: MRC5 (human lung fibroblast); experiment: as above; assay type: cell-based
Excerpt: as §1, §2

[8] = system: HL-60 (human promyelocytic leukemia); experiment: Cytotoxic activity, alamarBlue assay, 72 h; assay type: cell-based; conditions: for IC50: HL-60, alamarBlue, 72 h;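 for Selectivity index: SI is noncancer IC50 (MRC-5 or PBMC) divided by cancer cell IC50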
Excerpt: as §1, §2

[9] = system: HSC3 (human oral squamous cell carcinoma); experiment: Cytotoxic activity, alamarBlue assay, 72 h; assay type: cell-based; conditions: for IC50: HSC3, alamarBlue, 72 h
Excerpt: as §1, §2

[10] = system: K562 (human chronic myelogenous leukemia); experiment: Cytotoxic activity, alamarBlue assay, 72 h; assay type: cell-based; conditions: for IC50: K562, alamarBlue, 72 h;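 for Selectivity index: SI is noncancer IC50 (MRC-5 or PBMC) divided by cancer cell IC50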
Excerpt: as §1, §2

[11] = system: HCT116 (human colon carcinoma); experiment: Cytotoxic activity, alamarBlue assay, 72 h; assay type: cell-based; conditions: for IC50: HCT116, alamarBlue, 72 h;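 for Selectivity index: SI is noncancer IC50 (MRC-5 or PBMC) divided by cancer cell IC50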
Excerpt: as §1, §2

[12] = system: HepG2 (human hepatocellular carcinoma); experiment: Cytotoxic activity, alamarBlue assay, 72 h; assay type: cell-based; conditions: for IC50: HepG2, alamarBlue, 72 h
Excerpt: as §1, §2

[13] = system: B16-F10 (murine melanoma); experiment: Cytotoxic activity, alamarBlue assay, 72 h; assay type: cell-based; conditions: for IC50: B16-F10, alamarBlue, 72 h
Excerpt: as §1, §2

[14] = system: SCC9 (human oral squamous cell carcinoma); experiment: Cytotoxic activity, alamarBlue assay, 72 h; assay type: cell-based
Excerpt: as §1, §2

[15] = system: MCF7 (human breast carcinoma); experiment: Cytotoxic activity, alamarBlue assay, 72 h; assay type: cell-based; conditions: for IC50: MCF7, alamarBlue, 72 h;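 for Selectivity index: SI is noncancer IC50 (MRC-5 or PBMC) divided by cancer cell IC50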
Excerpt: as §1, §2

calf thymus DNA (ctDNA) = experiment: DNA intercalation assay (ethidium bromide displacement); assay type: binding; conditions: doxorubicin 10 μM, data not shown
Method: DNA intercalation was assessed by examining the ability of xylopine to displace ethidium bromide from calf thymus DNA (ctDNA, Sigma-Aldrich Co.). The assay was conducted in 96-well plates and contained 15 μg/mL ctDNA, 1.5 μM ethidium bromide, and 10 or 20 μM xylopine in 100 μL saline solution. […] Fluorescence was measured using excitation and emission wavelengths of 320 and 600 nm, respectively.

HCT116 cells [16] = assay type: cell-based, human; conditions: for cell cycle block: OXA 2.5 μM
Method: Cells were harvested in a permeabilization solution containing 0.1% Triton X-100 (Sigma Chemical Co., St Louis, MO, USA), 2 μg/mL propidium iodide (Sigma Chemical Co.), 0.1% sodium citrate, and 100 μg/mL RNAse (Sigma Chemical Co.) and incubated in the dark for 15 min at room temperature. Finally, cell fluorescence was measured by flow cytometry on a BD LSRFortessa cytometer using the BD FACSDiva software (BD Biosciences) and FlowJo software 10 (FlowJo, LCC, Ashland, OR, USA).

[17] = HCT116, DOX 1 μM, 24 h incubation
[18] = HCT116, DOX 1 μM, 48 h incubation
[19] = HCT116, OXA 2.5 μM, 24 h incubation
[20] = HCT116, OXA 2.5 μM, 48 h incubation

Compound: O=c1[nH]cc(F)c(=O)[nH]1 [5-FU, 5-fluorouracil]
IC50 [1]: 1.7 µM
IC50 [2]: 7.3 µM

IC50 ([3]; Homo sapiens, HCT-116): 4.5 µM
Compound: COc1cccc2c1C(=O)c1c(O)c3c(c(O)c1C2=O)C[C@@](O)(C(=O)CO)C[C@@H]3O[C@H]1C[C@H](N)[C@H](O)[C@H](C)O1 [DOX, doxorubicin]
number of viable cells (HCT116 cells [4]): reduced the number of viable cells
IC50 [1]: 0.03 µM
IC50 [2]: 0.4 µM
cell morphology (HCT116 cells [5]): cell shrinkage, chromatin condensation, and nuclear fragmentation
IC50 ([6]; Homo sapiens): 5.2 µM
IC50 ([7]; Homo sapiens): 1.5 µM
IC50 ([8]; Homo sapiens): 0.3 µM
Selectivity index ([8]; IC50(MRC5)/IC50(HL-60)): 5
Selectivity index ([8]; IC50(PBMC)/IC50(HL-60)): 17.3
IC50 ([9]; Homo sapiens, HSC-3): 0.3 µM
Selectivity index ([9]; IC50(MRC5)/IC50(HSC-3)): 5
Selectivity index ([9]; IC50(PBMC)/IC50(HSC-3)): 17.3
IC50 ([10]; Homo sapiens): 0.3 µM
Selectivity index ([10]; IC50(MRC5)/IC50(K-562)): 5
Selectivity index ([10]; IC50(PBMC)/IC50(K-562)): 17.3
IC50 ([11]; Homo sapiens, HCT-116): 0.1 µM
Selectivity index ([11]; IC50(MRC5)/IC50(HCT116)): 15
Selectivity index ([11]; IC50(PBMC)/IC50(HCT116)): 52
IC50 ([12]; Homo sapiens): 0.1 µM
Selectivity index ([12]; IC50(MRC5)/IC50(HepG2)): 15
Selectivity index ([12]; IC50(PBMC)/IC50(HepG2)): 52
Selectivity index ([13]; IC50(MRC5)/IC50(B16-F10)): 50
Selectivity index ([13]; IC50(PBMC)/IC50(B16-F10)): 173.3
IC50 ([13]; Mus musculus): 0.03 µM
IC50 ([14]; Homo sapiens, SCC-9, SCC9, alamarBlue, 72 h): 0.5 µM
Selectivity index ([14]; IC50(MRC5)/IC50(SCC-9)): 3
IC50 ([15]; Homo sapiens): 1.1 µM
Selectivity index ([15]; IC50(MRC5)/IC50(MCF7)): 1.4
Selectivity index ([15]; IC50(PBMC)/IC50(MCF7)): 4.7
displacement of ethidium bromide from ctDNA (fluorescence intensity) (calf thymus DNA (ctDNA)): significantly reduced the fluorescence intensity
DNA content (%) G0/G1 (HCT116 cells [16]; [17]): 28.0 ± 6.3%
DNA content (%) G2/M (HCT116 cells [16]; [17]): 44.1 ± 3.4^∗ %
DNA content (%) S (HCT116 cells [16]; [17]): 10.0 ± 2.5%
DNA content (%) Sub-G0/G1 (HCT116 cells [16]; [17]): 9.7 ± 2.5%
DNA content (%) G0/G1 (HCT116 cells [16]; [18]): 22.5 ± 4.0^∗ %
DNA content (%) G2/M (HCT116 cells [16]; [18]): 44.2 ± 4.4^∗ %
DNA content (%) S (HCT116 cells [16]; [18]): 14.9 ± 2.5%
DNA content (%) Sub-G0/G1 (HCT116 cells [16]; [18]): 18.3 ± 2.5%
cell cycle block (HCT116 cells [16]; HCT116, DOX 1 μM): caused cell cycle block at the phase G2/M

Compound: O=C1[O][Pt]2([NH][C@@H]3CCCC[C@H]3[NH]2)[O]C1=O [OXA, oxaliplatin, reference compound]
IC50 [3]: 6 µM
number of viable cells (HCT116 cells [4]): reduced the number of viable cells
cell morphology (HCT116 cells [5]): cell shrinkage, chromatin condensation, and nuclear fragmentation
IC50 [6]: 14.9 µM
IC50 [7]: 1.5 µM
IC50 [8]: 0.4 µM
IC50 [9]: 3.3 µM
IC50 [10]: 0.9 µM
IC50 [11]: 4.1 µM
IC50 [12]: 1 µM
IC50 [13]: 0.1 µM
IC50 [15]: 5.9 µM
cell cycle block (HCT116 cells [16]; HCT116, DOX 1 μM): caused cell cycle block at the phase G2/M
DNA content (%) G0/G1 (HCT116 cells [16]; [19]): 32.4 ± 3.7%
DNA content (%) G2/M (HCT116 cells [16]; [19]): 39.9 ± 1.5%
DNA content (%) S (HCT116 cells [16]; [19]): 13.5 ± 3.1%
DNA content (%) Sub-G0/G1 (HCT116 cells [16]; [19]): 8.8 ± 3.5%
DNA content (%) G0/G1 (HCT116 cells [16]; [20]): 36.2 ± 2.6%
DNA content (%) G2/M (HCT116 cells [16]; [20]): 32.2 ± 4.4%
DNA content (%) S (HCT116 cells [16]; [20]): 7.6 ± 0.4%
DNA content (%) Sub-G0/G1 (HCT116 cells [16]; [20]): 17.7 ± 1.9%
